Patent US7968557B2, “Substituted pyrrolo[2,3-2]pyrimidines as protein kinase inhibitors” (Novartis AG, priority 2004, dated 2011)
Where two headings read alike, the source gives them in different places.

Tests used:
Format in all cases: cell-based
FGFR3 = FGFR3 (Homo sapiens, UniProt P22607); experiment: IC50 for FGFR3 (method not described)
Tel-TRKC = Tel-TRKC (Homo sapiens, UniProt Q16288); experiment: IC50 for Tel-TRKC (method not described)
FLT3-ITD = biological target: T1, FLT3-ITD (Homo sapiens, UniProt P36888, DUP592-605); experiment: Flt-3 inhibition, proliferation of Ba/F3-Flt3-ITD cells
T1 construct: expressed in transfected cells; host or cells: murine Ba/F3 cells, retroviral infection
T1 sequence (P36888 with tags, fused parts or gaps DUP592-605): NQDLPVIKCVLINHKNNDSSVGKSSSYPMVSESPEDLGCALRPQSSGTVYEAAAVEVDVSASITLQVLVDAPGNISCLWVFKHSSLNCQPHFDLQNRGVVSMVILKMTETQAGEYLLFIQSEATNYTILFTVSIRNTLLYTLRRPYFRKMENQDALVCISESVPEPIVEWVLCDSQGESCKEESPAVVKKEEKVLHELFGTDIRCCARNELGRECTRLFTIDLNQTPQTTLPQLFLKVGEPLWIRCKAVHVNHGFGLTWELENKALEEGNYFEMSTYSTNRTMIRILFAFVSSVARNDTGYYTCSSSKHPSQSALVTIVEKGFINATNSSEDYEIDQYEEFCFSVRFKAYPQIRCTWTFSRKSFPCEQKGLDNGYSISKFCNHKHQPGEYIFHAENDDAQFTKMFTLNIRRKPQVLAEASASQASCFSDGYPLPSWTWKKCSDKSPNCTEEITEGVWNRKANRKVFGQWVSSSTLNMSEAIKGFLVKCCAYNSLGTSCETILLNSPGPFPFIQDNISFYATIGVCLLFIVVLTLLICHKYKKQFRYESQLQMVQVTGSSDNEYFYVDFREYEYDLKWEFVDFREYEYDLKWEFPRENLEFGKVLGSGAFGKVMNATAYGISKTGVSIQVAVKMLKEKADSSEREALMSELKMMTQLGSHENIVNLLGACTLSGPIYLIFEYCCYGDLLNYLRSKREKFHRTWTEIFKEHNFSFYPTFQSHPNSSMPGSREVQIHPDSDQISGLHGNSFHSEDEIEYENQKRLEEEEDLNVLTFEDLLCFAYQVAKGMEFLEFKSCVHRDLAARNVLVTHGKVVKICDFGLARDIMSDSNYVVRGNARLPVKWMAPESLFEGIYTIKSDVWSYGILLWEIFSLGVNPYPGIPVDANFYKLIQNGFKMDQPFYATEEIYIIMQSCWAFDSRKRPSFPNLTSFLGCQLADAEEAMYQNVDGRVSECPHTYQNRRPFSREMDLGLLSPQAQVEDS
Excerpt: Compounds that have differential activity (more than or equal to 10 fold difference in sensitivity between Flt3+cell lines and Flt3− cell lines are selected for further study.
The cell lines used for the initial screening are sub-lines of Ba/F3 cells that are engineered to over-express mutant or wild-type (non-mutated) Flt3 following infection with a retrovirus expressing appropriate Flt3 cDNAs. The parent cell line, Ba/F3 is dependent on interleukin-3 for proliferation, and when deprived of IL-3, the cells rapidly cease proliferation and die. The retrovirus expresses Flt3 from the retrovirual LTR and the neo gene from an IRES site. Ba/F3 cells are selected in G418 and analyzed for expression of Flt3 by fluorescence activated cell sorting (FACS). Cell lines with two different Flt3 mutations are used. One mutant expresses a Flt-3 that has a 14 amino acid duplication in the juxtamembrane domain encoded by exon 11, the specific duplication being . . . VDFREYEYDLKWEF . . . […]
Yo-Pro-1 iodide (Molecular Probes) is added to the cells at a final concentration of 2.5 μM in NaCl/Na-citrate buffer. The cells are incubated with Yo-Pro for 10 minutes at room temperature and then read on a fluorimeter for determination of cytotoxicity. Next, the cells are lysed with NP40/EDTA/EGTA buffer, incubated at room temperature for 90 minutes and read for the determination of proliferation. […]

PDGFR-beta = biological target: T2, PDGFR-beta (Homo sapiens, UniProt P09619); experiment: IC50 for BaF3/PDGFR-beta (method not described)
T2 construct: expressed in transfected cells; host or cells: BaF3
T2 sequence (P09619 33-1106, species assumed): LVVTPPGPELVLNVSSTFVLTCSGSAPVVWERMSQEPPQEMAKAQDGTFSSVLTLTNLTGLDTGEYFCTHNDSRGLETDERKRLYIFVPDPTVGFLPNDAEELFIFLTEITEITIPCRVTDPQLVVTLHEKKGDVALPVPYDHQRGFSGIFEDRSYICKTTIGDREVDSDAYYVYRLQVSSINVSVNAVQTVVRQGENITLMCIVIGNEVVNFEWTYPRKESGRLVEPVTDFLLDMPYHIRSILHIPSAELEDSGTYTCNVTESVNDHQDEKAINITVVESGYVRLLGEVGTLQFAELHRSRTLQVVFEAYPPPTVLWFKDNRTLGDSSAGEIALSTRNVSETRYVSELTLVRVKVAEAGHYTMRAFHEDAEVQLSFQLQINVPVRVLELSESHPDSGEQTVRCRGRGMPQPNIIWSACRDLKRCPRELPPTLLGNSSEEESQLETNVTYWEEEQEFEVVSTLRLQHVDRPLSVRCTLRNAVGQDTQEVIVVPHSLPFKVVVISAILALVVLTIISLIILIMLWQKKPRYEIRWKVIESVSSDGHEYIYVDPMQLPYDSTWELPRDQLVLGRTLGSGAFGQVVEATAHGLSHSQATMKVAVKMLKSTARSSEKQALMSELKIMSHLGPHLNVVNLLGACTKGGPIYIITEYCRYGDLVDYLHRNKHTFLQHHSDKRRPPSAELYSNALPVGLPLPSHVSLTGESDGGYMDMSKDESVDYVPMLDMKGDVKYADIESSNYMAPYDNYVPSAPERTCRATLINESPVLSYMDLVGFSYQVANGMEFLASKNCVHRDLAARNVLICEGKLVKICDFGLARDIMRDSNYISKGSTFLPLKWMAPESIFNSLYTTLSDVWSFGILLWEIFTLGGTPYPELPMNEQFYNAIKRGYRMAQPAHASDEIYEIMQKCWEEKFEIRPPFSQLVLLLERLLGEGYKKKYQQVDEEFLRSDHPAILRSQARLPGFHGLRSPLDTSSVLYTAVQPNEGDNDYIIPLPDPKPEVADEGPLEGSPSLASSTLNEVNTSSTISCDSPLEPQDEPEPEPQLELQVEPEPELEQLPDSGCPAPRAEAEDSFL

JAK2 = JAK2 (Homo sapiens, UniProt O60674); experiment: IC50 for JAK2 (method not described)
JAK2, sequence (O60674 whole entry, species assumed): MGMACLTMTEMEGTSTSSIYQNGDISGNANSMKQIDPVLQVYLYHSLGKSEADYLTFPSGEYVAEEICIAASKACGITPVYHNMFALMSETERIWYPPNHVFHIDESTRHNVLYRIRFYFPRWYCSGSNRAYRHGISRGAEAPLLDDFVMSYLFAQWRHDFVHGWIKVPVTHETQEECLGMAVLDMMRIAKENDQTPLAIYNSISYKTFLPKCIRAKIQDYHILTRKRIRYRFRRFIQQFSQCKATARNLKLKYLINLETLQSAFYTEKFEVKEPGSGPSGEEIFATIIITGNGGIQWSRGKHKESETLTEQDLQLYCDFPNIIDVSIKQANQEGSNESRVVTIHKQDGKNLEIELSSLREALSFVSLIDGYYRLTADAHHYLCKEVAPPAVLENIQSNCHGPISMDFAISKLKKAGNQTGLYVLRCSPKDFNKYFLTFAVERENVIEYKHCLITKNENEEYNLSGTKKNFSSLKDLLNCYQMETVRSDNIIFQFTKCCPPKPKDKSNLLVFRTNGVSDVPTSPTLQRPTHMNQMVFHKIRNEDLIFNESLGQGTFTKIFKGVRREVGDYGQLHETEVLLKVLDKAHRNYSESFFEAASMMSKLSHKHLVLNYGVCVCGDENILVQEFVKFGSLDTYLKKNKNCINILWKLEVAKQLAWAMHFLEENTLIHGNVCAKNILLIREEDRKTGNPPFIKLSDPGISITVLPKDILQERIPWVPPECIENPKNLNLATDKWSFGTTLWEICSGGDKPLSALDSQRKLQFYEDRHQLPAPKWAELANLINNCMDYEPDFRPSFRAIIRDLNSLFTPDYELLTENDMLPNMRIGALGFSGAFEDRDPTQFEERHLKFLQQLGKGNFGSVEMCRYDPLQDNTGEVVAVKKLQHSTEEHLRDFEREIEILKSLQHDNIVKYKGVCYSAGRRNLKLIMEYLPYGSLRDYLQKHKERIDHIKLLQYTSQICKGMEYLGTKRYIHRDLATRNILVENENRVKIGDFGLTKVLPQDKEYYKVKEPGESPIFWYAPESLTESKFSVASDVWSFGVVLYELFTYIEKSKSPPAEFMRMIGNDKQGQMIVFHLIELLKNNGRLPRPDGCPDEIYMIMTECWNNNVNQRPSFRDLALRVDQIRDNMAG

BCR-Abl = biological target: T3, BCR-Abl (Homo sapiens, UniProt P00519); experiment: Inhibition of cellular BCR-Abl dependent proliferation (32D-p210 cells)
T3 construct: expressed in transfected cells; host or cells: murine 32D hemopoietic progenitor cells (32D-p210); the other entry of the earlier key: BCR (P11274, Breakpoint cluster region protein)
T3 sequence (P00519 229-512 limits assumed): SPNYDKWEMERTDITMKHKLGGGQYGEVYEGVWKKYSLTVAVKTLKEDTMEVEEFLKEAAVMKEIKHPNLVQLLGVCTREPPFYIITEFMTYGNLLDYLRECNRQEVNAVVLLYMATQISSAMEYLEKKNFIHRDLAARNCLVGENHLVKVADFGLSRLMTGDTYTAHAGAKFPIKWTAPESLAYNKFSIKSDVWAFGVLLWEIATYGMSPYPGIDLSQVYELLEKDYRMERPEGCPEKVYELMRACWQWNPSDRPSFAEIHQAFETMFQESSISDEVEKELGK
Description: Inhibition of Cellular BCR-Abl Dependent Proliferation (High Throughput Method)
The murine cell line used is the 32D hemopoietic progenitor cell line transformed with BCR-Abl cDNA (32D-p210). These cells are maintained in RPMI/10% fetal calf serum (RPMI/FCS) supplemented with penicillin 50 μg/mL, streptomycin 50 μg/mL and L-glutamine […]. Untransformed 32D cells are similarly maintained with the addition of 15% WEHI conditioned medium as a source of IL3.
50 μl of a 32D or 32D-p210 cells suspension are plated in Greiner 384 well microplates (black) at a density of 5000 cells per well. 50 nl of test compound (1 mM in DMSO stock solution) is added to each well (ST1571 is included as a positive control). The cells are incubated for 72 hours at 37° C., 5% CO2. 10 μl of a 60% Alamar Blue solution (Tek diagnostics) is added to each well and the cells are incubated for an additional 24 hours. The fluorescence intensity (Excitation at 530 nm, Emission at 580 nm) is quantified using the Acquest™ system (Molecular Devices).
Inhibition of Cellular BCR-Abl Dependent Proliferation
32D-p210 cells are plated into 96 well TC plates at a density of 15,000 cells per well. 50 μL of two fold serial dilutions of the test compound (Cmax is 40 μM) are added to each well (ST1571 is included as a positive control). […]

FGFR3, sequence (P22607 23-806, species assumed): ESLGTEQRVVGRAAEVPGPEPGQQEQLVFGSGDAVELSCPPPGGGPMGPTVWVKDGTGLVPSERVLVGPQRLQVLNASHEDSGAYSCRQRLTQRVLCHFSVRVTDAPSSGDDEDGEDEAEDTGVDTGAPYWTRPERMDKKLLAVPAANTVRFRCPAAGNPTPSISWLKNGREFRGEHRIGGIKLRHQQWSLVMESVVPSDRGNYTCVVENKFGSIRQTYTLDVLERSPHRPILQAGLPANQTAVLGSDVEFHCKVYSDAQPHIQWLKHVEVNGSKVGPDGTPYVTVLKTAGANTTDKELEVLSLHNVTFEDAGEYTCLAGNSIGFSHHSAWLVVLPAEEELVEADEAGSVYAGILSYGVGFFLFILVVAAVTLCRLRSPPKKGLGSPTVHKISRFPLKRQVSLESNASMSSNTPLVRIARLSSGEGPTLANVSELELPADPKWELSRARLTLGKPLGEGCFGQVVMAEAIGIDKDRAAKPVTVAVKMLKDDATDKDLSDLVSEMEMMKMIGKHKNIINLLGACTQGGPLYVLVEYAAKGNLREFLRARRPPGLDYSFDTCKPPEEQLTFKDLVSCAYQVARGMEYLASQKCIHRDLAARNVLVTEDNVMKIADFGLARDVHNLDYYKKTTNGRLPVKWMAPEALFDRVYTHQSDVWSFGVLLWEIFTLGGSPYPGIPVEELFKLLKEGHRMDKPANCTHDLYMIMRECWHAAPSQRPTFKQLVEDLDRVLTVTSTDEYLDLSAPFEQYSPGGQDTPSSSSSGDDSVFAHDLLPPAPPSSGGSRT
Tel-TRKC, sequence (Q16288 530-839): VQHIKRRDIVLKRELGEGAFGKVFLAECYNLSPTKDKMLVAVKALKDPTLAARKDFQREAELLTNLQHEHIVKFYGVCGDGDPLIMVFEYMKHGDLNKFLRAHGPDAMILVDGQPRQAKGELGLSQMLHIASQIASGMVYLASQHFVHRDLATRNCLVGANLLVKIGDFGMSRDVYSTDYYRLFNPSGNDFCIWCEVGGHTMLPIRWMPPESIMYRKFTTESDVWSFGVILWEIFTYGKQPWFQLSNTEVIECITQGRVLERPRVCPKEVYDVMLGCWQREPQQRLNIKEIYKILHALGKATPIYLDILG
Tel-TRKC, sequence (P41212 1-336 partner): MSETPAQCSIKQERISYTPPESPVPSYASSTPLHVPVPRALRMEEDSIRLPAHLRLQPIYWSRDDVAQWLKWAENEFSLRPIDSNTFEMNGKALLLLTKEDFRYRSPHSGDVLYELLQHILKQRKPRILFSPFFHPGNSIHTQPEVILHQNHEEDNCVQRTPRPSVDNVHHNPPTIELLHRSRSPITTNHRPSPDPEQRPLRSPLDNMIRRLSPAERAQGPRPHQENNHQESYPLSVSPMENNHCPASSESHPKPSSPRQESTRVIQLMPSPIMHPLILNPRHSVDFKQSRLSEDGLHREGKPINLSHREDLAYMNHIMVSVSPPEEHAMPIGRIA

COc1cc(Nc2ncc3c(n2)N(c2ccccn2)CC3)cc(OC)c1OC [example 61, (7-Pyridin-2-yl-6,7-dihydro-5H-pyrrolo[2,3-d]pyrimidin-2-yl)-(3,4,5-trimethoxy-phenyl)-amine]
IC50 (FGFR3): 284 nM

COc1cc(Nc2ncc3ccn(-c4cccc(CC#N)c4)c3n2)cc(OC)c1OC [example 104, {3-[2-(3,4,5-Trimethoxy-phenylamino)-pyrrolo[2,3-d]pyrimidin-7-yl]-phenyl}-acetonitrile]
IC50 (Tel-TRKC): 479 nM | IC50 (FLT3-ITD): 29 nM | IC50 (PDGFR-beta; read-out: IC50 for PDGFR-beta): 33 nM | IC50 (JAK2): 342 nM | IC50 (FGFR3): 282 nM

COc1cc(Nc2ncc3ccn(-c4cccc(CCC#N)c4)c3n2)cc(OC)c1OC [example 85, 3-{3-[2-(3,4,5-Trimethoxy-phenylamino)-pyrrolo[2,3-d]pyrimidin-7-yl]-phenyl}-propionitrile]
IC50 (FLT3-ITD): 16 nM

COc1ccc(Nc2ncc3ccn(-c4ccnc(Cl)c4)c3n2)c(C)c1 [example 47, [7-(2-Chloro-pyridin-4-yl)-7H-pyrrolo[2,3-d]pyrimidin-2-yl]-(4-methoxy-2-methyl-phenyl)-amine]
IC50 (BCR-Abl): 408 nM

COc1cc(Nc2ncc3ccn(-c4cccc(Cc5nnnn5C)c4)c3n2)cc(OC)c1OC [example 120, {7-[3-(1-Methyl-1H-tetrazol-5-ylmethyl)-phenyl]-7H-pyrrolo[2,3-d]pyrimidin-2-yl}-(3,4,5-trimethoxy-phenyl)-amine]
IC50 (PDGFR-beta; BaF3/PDGFR-beta, read-out: IC50 for BaF3/PDGFR-beta): 29 nM
